From PubChem BioAssay (NCI)
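Results reflect a 48-hour exposure of cells in 96-well plates to compound at five concentrations. The concentration for full growth arrest is given as TGI.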

Columns and labels:
Experiment in all cases: NCI tumour cell line growth inhibition, 48 h
SF-295 CNS = test system: SF-295 CNS
NCI/ADR-RES ovarian = test system: NCI/ADR-RES ovarian
NCI-H23 lung = test system: NCI-H23 lung
IGROV1 ovarian = test system: IGROV1 ovarian
UACC-257 melanoma = test system: UACC-257 melanoma
HL-60(TB) leukemia = test system: HL-60(TB) leukemia
SK-OV-3 ovarian = test system: SK-OV-3 ovarian
SNB-75 CNS = test system: SNB-75 CNS
RXF 393 renal = test system: RXF 393 renal
A498 renal = test system: A498 renal

Compound	TGI (SF-295 CNS) [µM]	TGI (NCI/ADR-RES ovarian) [µM]	TGI (NCI-H23 lung) [µM]	TGI (IGROV1 ovarian) [µM]	TGI (UACC-257 melanoma) [µM]	TGI (HL-60(TB) leukemia) [µM]	TGI (SK-OV-3 ovarian) [µM]	TGI (SNB-75 CNS) [µM]	TGI (RXF 393 renal) [µM]	TGI (A498 renal) [µM]
NS(=O)(=O)c1cc(S(N)(=O)=O)c(NC(=O)N(c2ccccc2)c2ccccc2)c(Cl)c1Cl	95.9	54.4	58.2	25.6	27.6	52	65.3	–	–	–
CC(=O)NC1=C(NCC(C)C)C(=O)c2ccccc2C1=O	> 100	–	59.7	> 100	36.4	7.32	> 100	31.1	25.4	> 100
COc1cccc(CN(C(=O)/C=C\Sc2ccccc2)C(C)(C)C)c1	> 100	> 100	> 100	> 100	> 100	> 100	> 100	–	–	> 100
O=C(CSc1nc2ccc(I)cc2c(=O)n1Cc1ccccc1)NN1C(=O)CCC1=O	> 100	> 100	66.6	90.9	> 100	87.6	> 100	> 100	62.5	–
COC(=O)c1c(OC)cc2cc3c(c(O)c2c1C)C(=O)C1(O)C(=O)C=C(OC)C(OC(=O)CC(C)N)=C1C3=O (stereo unspecified)	> 100	> 100	> 100	69.1	> 100	50.8	–	18	–	–
CC(=O)Nc1ccc(C(=O)N2N=C(C)/C(=C/c3ccc(O)cc3)C2=O)cc1	> 100	–	> 100	–	> 100	> 100	–	> 100	–	–
C/C(=C\Cc1cc(O)ccc1O)CCc1c(C)cc(O)c(C=O)c1C	79	–	70.8	50.5	–	> 100	> 100	77.4	37.1	> 100
CCOC(=O)CCCn1cc(C(=O)OC)nn1	> 100	> 100	> 100	> 100	> 100	–	–	> 100	> 100	–
O=c1c2c(nc3n1CCC3)sc1c(O)c(Br)ccc12	35	–	92.7	82.5	30.7	33.8	> 100	> 100	> 100	24.5
O=c1oc2ccc(Cl)cc2cc1-c1cn2ccsc2n1	> 100	> 100	> 100	> 100	> 100	85.1	> 100	> 100	> 100	–
COc1ccc(/C=C2\CCC(CNc3ccc(Br)cc3)C2=O)cc1 (stereo unspecified)	> 100	> 100	> 100	> 100	> 100	> 100	> 100	–	> 100	> 100
Cc1cc(=O)[nH]c(NNC(C#N)c2ccc([N+](=O)[O-])cc2)n1 (stereo unspecified)	> 100	–	> 100	> 100	> 100	> 100	> 100	> 100	> 100	–
Nc1ncc(/C=N/O)c(NCC2(CO)CC(CCc3ccccc3)C2)n1 (stereo unspecified)	22.7	70.6	–	31.2	24.4	28	–	30.8	29	29.1
CC12CC(C/C1=N/O)C(C)(C)C2 (stereo unspecified)	> 100	–	> 100	> 100	> 100	> 100	> 100	> 100	> 100	> 100
CC(C)(C)c1ccc(-c2nnc(-c3cc(C#N)cc(-c4nnc(-c5ccc(C(C)(C)C)cc5)o4)c3)o2)cc1	> 100	> 100	> 100	> 100	> 100	–	> 100	> 100	96.9	> 100
Cc1cc2n([O-])cccc-2[n+](=O)c1	> 100	–	> 100	> 100	> 100	> 100	> 100	> 100	> 100	–
O=[N+]([O-])/C=C/c1cn(CCCCCn2cc(/C=C/[N+](=O)[O-])c3ccccc32)c2ccccc12	> 43.9	35.4	16	5.81	13.8	2.5	> 93.5	–	1.35	3.86
O=C(OCc1ccccc1C1CSCSC1)c1cc(C(=O)OCc2ccccc2C2CSCSC2)c(C(=O)OCc2ccccc2C2CSCSC2)cc1C(=O)OCc1ccccc1C1CSCSC1	> 100	–	> 100	> 100	> 100	> 100	> 100	> 100	> 100	> 100
COC(=O)CC(NC(=O)OCc1ccccc1)C(C(=O)OCc1ccccc1)C1(C)OCCO1 (stereo unspecified)	> 100	–	> 100	> 100	> 100	62.6	–	73.2	> 100	> 100
CC1(C)COC(c2c(-c3ccccc3)noc2CS(=O)c2ccccc2)=N1 (stereo unspecified)	> 100	–	> 100	> 100	> 100	84.6	> 100	> 100	> 100	> 100
CCN(CC)CCN(C)CCc1ccc(Br)cc1	> 100	> 100	> 100	> 100	> 100	–	> 100	> 100	> 100	60.4
Cc1ccc(S(=O)(=O)N/N=C2\C3CC4CC(C3)C2C4)cc1 (stereo unspecified)	> 100	> 100	> 100	> 100	> 100	> 100	> 100	> 100	> 100	–
O=C(c1ccco1)C1CC(c2ccc3ccccc3c2O)=NN1c1ccc([N+](=O)[O-])cc1[N+](=O)[O-] (stereo unspecified)	> 100	75.4	> 100	> 100	> 100	–	96.9	89.1	> 100	> 100
